# Experimental data taken from patent US20240139178A1, “METHOD FOR MANUFACTURING COMPOSITION FOR COMPOSITION FOR INCREASING COGNITIVE FUNCTION” (priority 2018, published 2024).
# Target: T1, Aβ1-42 (Homo sapiens, UniProt P05067)
# T1 construct: human A81-42 monomers (UniProtKB-P05067, a.a. 672-713)
# Experiment: Aβ aggregation inhibition test (Thioflavin T analysis)
# Format: biochemical
# Details: 20 μM compound, 50 μM Aβ, 3 days; relative to control (100%)
# Description: Then, the compound was used diluted by using 6% DMSO (in DW) and used.
# Triflupromazine hydrochloride (triflupromazine used in all the examples below is triflupromazine hydrochloride) was dissolved to a concentration of 5 mM in DMSO. The compound was then used diluted with 6% DMSO (in DW).
# The Aβ solution was prepared by dissolving human A81-42 monomers (UniProtKB-P05067, a.a. 672-713) to 10 mM concentration in DMSO. Thereafter, the mixture was diluted to 100 uM by using DW and stored on ice.
# On the other hand, Thioflavin-T (Sigma-Aldrich) was dissolved to the concentration of 5 mM in 50 mM glycine buffer (pH 8.5). Then, the resultant solution was diluted to the concentration of 50 μM by using 50 mM glycine buffer (pH 8.5) and stored in the dark while light was blocked.
# (§1) 25 μL of the reaction solution in which the reaction was completed was added to each well of a 96-well fluorescence assay plate, and 75 μL of the Thioflavin-T solution prepared above was added to each well. After reacting for 5 minutes in the dark at room temperature, fluorescence values were measured at excitation 450 nm and emission 485 nm by using a multi-mode microplate reader.
# The fluorescence value of the group (control) treated with Aβ alone and aggregated for 72 hours was considered as 100%, and the measured fluorescence values were expressed as a relative value thereto, and results thereof are shown in FIG. 1 and FIG. 2.
# In addition, by performing the same test as described above for 20 μM of various compounds using 50 μM Aβ, the degree of Aβ aggregation was measured, and the result is expressed as a relative value for control (100%).
# T1 sequence (P05067 672-713): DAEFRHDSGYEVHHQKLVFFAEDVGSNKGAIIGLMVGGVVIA
row,Compound,Aggregation (%)
1,Cc1nc2n(c(=O)c1CCN1CCC(c3noc4cc(F)ccc34)CC1)CCCC2 [Risperidone],117.68
2,CC12CC3CC(C)(C1)CC(N)(C3)C2 [Mementine],95.84
3,CN1CCN(C2=Nc3cc(Cl)ccc3Nc3ccccc32)CC1 [Clozapine],99.14
4,CCN1CCCC1CNC(=O)c1cc(S(=O)(=O)CC)c(N)cc1OC (stereo not drawn) [Amisulpride],96.29
5,CN1CCN(CC/C=C2/c3ccccc3Sc3ccc(S(=O)(=O)N(C)C)cc32)CC1 [Thiothixene],125.23

# Target: T1, Aβ1-42
# Experiment: Aβ disaggregation test of rifamycin-based derivatives by Thioflavin T analysis
# Format: biochemical
# Details: 50 μM compound, 50 μM Aβ1-42 aggregated 3 days, then 2 days of reaction
# Description: The compound was then used diluted with 6% DMSO (in DW).
# The Aβ solution was prepared by dissolving Aβ 1-42 monomers to the concentration of 10 mM in DMSO. Thereafter, the mixture was diluted to 100 μM by using DW and stored on ice.
# On the other hand, Thioflavin-T was dissolved to the concentration of 5 mM in 50 mM glycine buffer (pH 8.5). Then, the resultant solution was diluted to the concentration of 50 μM by using 50 mM glycine buffer (pH 8.5) and stored in the dark while light was blocked.
# The Aβ solution prepared in Example 3.1. was placed in 1.5 mL microcentrifuge tubes, each having 50 μM of the Aβ solution, and then reacted at 37° C. for 72 hours.
# Each 1.5 mL microcentrifuge tube was treated with 50 μM rifapentine-based derivatives, followed by reaction at 37° C. for 48 hours.
# as §1
# The fluorescence value of the group (control) treated with Aβ alone and aggregated for 72 hours by treating only Aβ was considered as 100%, and the measured fluorescence values were expressed as a relative value thereto, and results thereof are shown in FIG. 7.
row,Compound,Aβ disaggregation effect compared to the control
1,"CO[C@H]1/C=C/O[C@@]2(C)Oc3c(C)c(O)c4c(O)c(cc(OCC(=O)O)c4c3C2=O)NC(=O)/C(C)=C\C=C\[C@H](C)[C@H](O)[C@@H](C)[C@@H](O)[C@@H](C)[C@H](OC(C)=O)[C@@H]1C [rifamycin B, {[(2S,12Z,14E,16S,17S,18R,19R,20R,21S,22R,23S,24E)-21-(acetyloxy)-5,6,17,19-tetrahydroxy-23-methoxy-2,4,12,16,18,20,22-heptamethyl-1,11-dioxo-1,2-dihydro-2,7-(epoxypentadeca[1,11,13]trienoimino)naphtho[2,1-b]furan-9-yl]oxy}acetic acid]",significant disaggregation did not occur
2,"COC1C=COC2(C)Oc3c(C)c(O)c4c(O)c(c5c(c4c3C2=O)=NC2(CCN(CC(C)C)CC2)N=5)NC(=O)C(C)=CC=CC(C)C(O)C(C)C(O)C(C)C(OC(C)=O)C1C [ripabutin, (S,12E,14S,15R,16S,17R,18R,19R,20S,21S,22E,24Z)-6,16,18,20-tetrahydroxy-1′-isobutyl-14-methoxy-7,9,15,17,19,21,25-heptamethyl-spiro[9,4-(epoxypentadeca[1,11,13]trienimino)-2H-furo[2″,3″:7,8]naphth[1,2-dimidazole-2,4″-piperidine]-5,10,26-(3H,9H)-trione-16-acetate]",about 50%
3,"CO[C@H]1/C=C/O[C@@]2(C)Oc3c(C)c(O)c4c(c3C2=O)C(=O)C=C(NC(=O)/C(C)=C\C=C\[C@H](C)[C@H](O)[C@@H](C)[C@@H](O)[C@@H](C)[C@H](OC(C)=O)[C@@H]1C)C4=O [rifamycin S, 5,17,19,21-tetrahydroxy-23-methoxy-2,4,12,16,18,20,22-heptamethyl-2,7-(epoxypentadeca[1,11,13]trienimino)naphtho[2,1-b]furan-1,6,9,11(2H)-tetrone 21-acetate]",25%
4,"CO[C@H]1/C=C/O[C@@]2(C)Oc3c(C)c(O)c4c(O)c(cc(O)c4c3C2=O)NC(=O)/C(C)=C\C=C\[C@H](C)[C@H](O)[C@@H](C)[C@@H](O)[C@@H](C)[C@H](OC(C)=O)[C@@H]1C [rifamycin SV, 5,6,9,17,19,21-Hexahydroxy-23-methoxy-2,4,12,16,18,20,22-heptamethyl-2,7-(epoxypentadeca[1,11,13]trienimino)naphtho[2,1-b]furan-1,11(2H)-dione 21-acetate]",about 50%
5,3-[[[4-(2-Methylpropyl)-1-piperazinyl]imino]methyl]rifamycin [rifamdin],about 50%
6,"CO[C@H]1/C=C/O[C@@]2(C)Oc3c(C)c(O)c4c(O)c(c(/C=N/N5CCN(C)CC5)c(O)c4c3C2=O)NC(=O)/C(C)=C\C=C\[C@H](C)[C@H](O)[C@@H](C)[C@@H](O)[C@@H](C)[C@H](OC(C)=O)[C@@H]1C [rifampicin, 5,6,9,17,19,21-hexahydroxy-23-methoxy-2,4,12,16,18,20,22-heptamethyl-8-[N-(4-methyl-1-piperazinyl) formimidoyl]-2,7-(epoxypentadeca [1,11,13]trienimino)-naphtho [2,1-b] furan-1,11 (2H) -dione 21-acetate]",about 50%
7,"CO[C@H]1/C=C/O[C@@]2(C)Oc3c(C)c(O)c4c(O)c(c5c(nc6cc(C)ccn65)c4c3C2=O)NC(=O)/C(C)=C\C=C\[C@H](C)[C@H](O)[C@@H](C)[C@@H](O)[C@@H](C)[C@H](OC(C)=O)[C@@H]1C (relative stereo) [rifaximin, [2S-(2R*,16Z,18E,20R*,21R*,22S*,23S*,24S*,25R*,26S*,27R*,22E)]-25-acetyloxy) -5,6,21,23-tetrahydroxy-27-methoxy-2,4,11,16,20,22,24,26-octamethyl-2,7-(epoxypentadeca [1,11,13] trienimino) benzofuro [4,5-e] pyrido [1,2-a] benzimidazole-1,15 (2H) -dione]",significant disaggregation did not occur
